# Values of other authors, collected in EP1860434A1, “Method for analysing substance mixtures” (Shimadzu Europa GmbH, priority 2006, dated 2007).
# Conditions: listed for the six substances of the Performance Test Probe; no measurement described
row,Compound,pKa-Wert
1,2-Ethyliden-1.5-dimethyl-3.3-diphenyl-pyrrolidin,9.6
2,"CC(N)Cc1ccc2c(c1)OCO2 (stereo not drawn) [Methylendioxyamphetamin (MDA), Methylendioxyamphetamin]",9.7
3,CN(C)C(=O)Oc1cccc([N+](C)(C)C)c1 [Neostigminbromid],12
